Structures can show the parent of a compound that is named as a salt.
Assays:
benzodiazepine receptors = assay: Affinity for benzodiazepine receptors: inhibition of specific binding of [3H]flunitrazepam (WASTEK et al., modified); set-up: species or system rats; conditions: 50% inhibition of specific binding of [3H]flunitrazepam, rat brain membranes
Experimental: This study was performed according to the technique of WASTEK et al., (Europ. J. Pharmacol., 1978, 50, 445-447) slightly modified.
Rats are sacrificed by decapitation, and the brain is removed, ground, suspended, centrifuged and resuspended.
Samples of this suspension are incubated in the presence of [^3 H]flunitrazepam, alone or in the presence of increasing concentrations of the test compound.
The radioactivity bound on the membranes is then determined by liquid scintillation.
The concentration of product which 50% inhibits the specific binding of [^3 H]flunitrazepam (IC50) is thereby determined.

food neophobia = assay: Anxiolytic activity: food neophobia test; assay type: in vivo, mice; conditions: dose 16 mg/kg, SC, 30 minutes after treatment
Experimental: This activity was studied by the food neophobia test. In effect, a pronounced inhibition of the feed intake can be obtained in mice when both the food and the enclosure are unfamiliar to the aninal (R. J. STEPHENS, Brit. J. Pharmacol., 1973, 47, 145 P). All anxiolytics specifically counteract neophobia phenomena.
30 minutes after oral or subcutaneous treatment with the test derivatives and the reference products, the mice, fasted for 16 to 20 hours, are isolated in a translucent enclosure and placed in the presence of an unfamiliar food for 5 minutes.
The amounts consumed are evaluated in proportion to the weight of the animal.
In each batch, the mean consumption and also the percentage variation relative to the control batch are calculated in this manner.

pentetrazole seizures = assay: Anticonvulsant activity: protection against pentetrazole seizures (EVERETT and RICHARDS); assay type: in vivo, mice; conditions: pentetrazole 125 mg/kg subcutaneously, no tonic seizures during 30 minutes, 95% confidence limits (FINNEY); for ED50: Mus musculus, po, 0.5 h, read-out: ED50 (Confidence interval)
Experimental: The protective effect produced by the compound of the inventon against pentetrazole seizures was studied.
This test was carried out according to the method of EVERETT and RICHARDS (J. Pharm. Exp. Ther., 1944, 81, 402-407). The test products and reference products were administered orally (suspended in gum arabic) to batches of 10 mice, 30 minutes […] pentetrazole (125 mg/kg subcutaneously).

Row | Structure (SMILES) | IC50 (benzodiazepine receptors) | further results
1 | CCCN(CCC)C(=O)CNc1c(C(=O)O)cnc2ccc(Cl)cc12 [Derivative 46, 2-(3-Carboxy-6-chloro-4-quinolyl)amino-N,N-dipropylacetamide] | 1 nM | Percentage increase (food consumption relative to control batch) (food neophobia): 75%
2 | CCC1(c2ccccc2)C(=O)NC(=O)NC1=O [Phenobarbital, reference compound] |  | ED50 (pentetrazole seizures): 10 mg/kg
3 | CCOC(=O)c1cnc2ccc(Cl)cc2c1NCC(=O)N1CCCCC1 [Derivative 25, 1-{2-[(3-Ethoxycarbonyl-6-chloro-4-quinolyl)amino]acetyl}piperidine] | 148 nM | ED50 (pentetrazole seizures): 33 mg/kg
4 | CCOC(=O)c1cnc2ccc(Cl)cc2c1NCC(N)=O [Derivative 30, 2-[(3-Ethoxycarbonyl-6-chloro-4-quinolyl)amino]acetamide] | 700 nM | 
5 | CCOC(=O)c1cnc2ccc(Cl)cc2c1NCC(=O)N(C)c1ccccc1 [Derivative 22, 2-(3-Ethoxycarbonyl-6-chloro-4-quinolyl)amino-N-methyl-N-phenylacetamide] | 14 nM | 
6 | CCOC(=O)c1cnc2ccc(Cl)cc2c1NCC(=O)N(C)C1CCCCC1 [Derivative 23, 2-(3-Ethoxycarbonyl-6-chloro-4-quinolyl)amino-N-methyl-N-cyclohexylacetamide] | 100 nM | 
7 | CCOC(=O)c1cnc2ccc(Cl)cc2c1NCC(=O)N1CCOCC1 [Derivative 28, 1-{2-[(3-Ethoxycarbonyl-6-chloro-4-quinolyl)amino]acetyl}morpholine] | 600 nM | 
8 | CCCN(CCC)C(=O)CNc1c(C(=O)OCC)cnc2ccccc12 [Derivative 15, 2-(3-Ethoxycarbonyl-4-quinolyl)amino-N,N-dipropylacetamide] | 483 nM | 
9 | CCOC(=O)c1cnc2ccc(Cl)cc2c1NCC(=O)N(CC(C)C)CC(C)C [Derivative 21, 2-(3-Ethoxycarbonyl-6-chloro-4-quinolyl)amino-N,N-diisobutylacetamide] | 28 nM | 
10 | CCOC(=O)c1cnc2ccc(F)cc2c1NCC(=O)N(CC)CC [Derivative 7, 2-(3-Ethoxycarbonyl-6-fluoro-4-quinolyl)amino-N,N-diethylacetamide] | 639 nM | 
11 | CCCN(CCC)C(=O)CNc1c(C(C)=O)cnc2ccc(C)cc12 [Derivative 66, 2-(3-Acetyl-6-methyl-4-quinolyl)amino-N,N-dipropylacetamide] | 92 nM | 
12 | CCCN(C(=O)CNc1c(C(=O)OCC)cnc2ccc(Cl)cc12)c1ccccc1 [Derivative 35, 2-(3-Ethoxycarbonyl-6-chloro-4-quinolyl)amino-N-propyl-N-phenylacetamide] | 27 nM | 
13 | O=C(O)c1cnc2ccc(Cl)cc2c1NCC(=O)N1CCCCCC1 [Derivative 45, 1-{2-[(3-Carboxy-6-chloro-4-quinolyl)amino]acetyl}-homopiperidine] | 7 nM | 
14 | CCCCOC(=O)c1cnc2ccc(Cl)cc2c1NCC(=O)N(CC)CC [Derivative 49, 2-(3-Butoxycarbonyl-6-chloro-4-quinolyl)amino-N,N-diethylacetamide] | 61 nM | ED50 (pentetrazole seizures): 54 mg/kg
15 | CCOC(=O)c1cnc2ccc(Cl)cc2c1NCC(=O)N(C)c1ccc(Cl)cc1 [Derivative 24, 2-(3-Ethoxycarbonyl-6-chloro-4-quinolyl)amino-N-methyl-N-(4-chlorophenyl)acetamide] | 251 nM | 
16 | C#CCN(C)C(=O)CNc1c(C(=O)OCC)cnc2ccc(Cl)cc12 [Derivative 36, 2-(3-Ethoxycarbonyl-6-chloro-4-quinolyl)amino-N-methyl-N-(2-propynyl)acetamide] | 99 nM | 
17 | CCN(CC)C(=O)CNc1c(C(=O)OCc2ccccc2)cnc2ccc(Cl)cc12 [Derivative 50, 2-(3-Benzyloxycarbonyl-6-chloro-4-quinolyl)amino-N,N-diethylacetamide] | 27 nM | 
18 | CCOC(=O)c1cnc2ccc(Cl)cc2c1NCC(=O)N1CCCCCC1 [Derivative 27, 1-{2-[(3-Ethoxycarbonyl-6-chloro-4-quinolyl)amino]acetyl}homopiperidine] | 38 nM | 
19 | CCOC(=O)c1cnc2ccc(C3CCCCC3)cc2c1NCC(=O)N(CC)CC [Derivative 9, 2-(3-Ethoxycarbonyl-6-cyclohexyl-4-quinolyl)amino-N,N-diethylacetamide] | 900 nM | 
20 | CCOC(=O)c1cnc2ccc(C)cc2c1NCC(=O)N(CC)CC [Derivative 2, 2-[(3-Ethoxycarbonyl-6-methyl)-4-quinolyl]amino-N,N-diethylacetamide hydrochloride] | 41 nM | 

Row | Structure (SMILES) | IC50 (benzodiazepine receptors) | further results
21 | CCCN(CCC)C(=O)CN(C)c1c(C(=O)OCC)cnc2ccc(Br)cc12 [Derivative 63, [N'-(3-Ethoxycarbonyl-6-bromo-4-quinolyl)-N'-methylamino]-N,N-dipropylacetamide] |  | ED50 (pentetrazole seizures): 24 mg/kg
22 | CCCCc1ccc2ncc(C(=O)OCC)c(NCC(=O)N(CC)CC)c2c1 [Derivative 6, 2-(3-Ethoxycarbonyl-6-butyl-4-quinolyl)amino-N,N-diethylacetamide] | 155 nM | 
23 | CCOC(=O)c1cnc2ccc(Cl)cc2c1NCC(=O)N(C)C [Derivative 29, 2-(3-Ethoxycarbonyl-6-chloro-4-quinolyl)amino-N,N-dimethylacetamide] | 687 nM | ED50 (pentetrazole seizures): 38 mg/kg
24 | CCOC(=O)c1cnc2ccc(Cl)cc2c1NCC(=O)N1CCCC1 [Derivative 26, 1-{2-[(3-Ethoxycarbonyl-6-chloro-4-quinolyl)amino]acetyl}pyrrolidine] | 333 nM | ED50 (pentetrazole seizures): 50 mg/kg
25 | CCOC(=O)c1cnc2ccc(Cl)cc2c1NCC(=O)N(C(C)C)C(C)C [Derivative 34, 2-(3-Ethoxycarbonyl-6-chloro-4-quinolyl)amino-N,N-diisopropylacetamide] | 48 nM | 
26 | CCCN(CCC)C(=O)CN(C)c1c(C(=O)OCC)cnc2ccc(C)cc12.Cl [Derivative 61, [N'-(3-Ethoxycarbonyl-6-methyl-4-quinolyl)-N'-methylamino]-N,N-dipropylacetamide hydrochloride] |  | ED50 (pentetrazole seizures): 24 mg/kg
27 | CCN(CC)C(=O)CNc1c(C(=O)Nc2ccccc2)cnc2ccc(Cl)cc12 [Derivative 56, 2-[3-(N-Phenylcarbamoyl)-6-chloro-4-quinolyl]amino-N,N-diethylacetamide] | 136 nM | 
28 | CCCN(CCC)C(=O)CNc1c(C(=O)O)cnc2ccc(Br)cc12 [Derivative 47, 2-(3-Carboxy-6-bromo-4-quinolyl)amino-N,N-dipropylacetamide monohydrate] | 1 nM | 
29 | CCCN(CCC)C(=O)CNc1c(C(=O)OCC)cnc2ccc(C(F)(F)F)cc12 [Derivative 19, 2-(3-Ethoxycarbonyl-6-trifluoromethyl-4-quinolyl)amino-N,N-dipropylacetamide] | 28 nM | 
30 | CCN(CC)C(=O)CNc1c(C(=O)OC(C)C)cnc2ccc(Cl)cc12 [Derivative 48, 2-(3-Isopropyloxycarbonyl-6-chloro-4-quinolyl)amino-N,N-diethylacetamide] | 69 nM | 
31 | CCOC(=O)c1cnc2ccccc2c1NCC(=O)N(CC)CC [Derivative 10, 2-(3-Ethoxycarbonyl-4-quinolyl)amino-N,N-diethylacetamide] | 1560 nM | ED50 (pentetrazole seizures): 68 mg/kg
32 | CCCN(CCC)C(=O)CN(C)c1c(C(=O)OCc2ccccc2)cnc2ccc(C)cc12 [Derivative 53, [N'-(3-Benzyloxycarbonyl-6-methyl-4-quinolyl)-N'-methylamino]-N,N-dipropylacetamide] | 638 nM | 
33 | CCOC(=O)c1cnc2ccc(Cl)cc2c1NCC(=O)NC [Derivative 41, 2-(3-Ethoxycarbonyl-6-chloro-4-quinolyl)amino-N-methylacetamide] | 440 nM | ED50 (pentetrazole seizures): 46 mg/kg
34 | CCCNC(=O)c1cnc2ccc(Cl)cc2c1NCC(=O)N(CC)CC [Derivative 55, 2-[3-(N-Propylcarbamoyl)-6-chloro-4-quinolyl]amino-N,N-diethylacetamide] | 150 nM | 
35 | CCCN(CCC)C(=O)CN(C)c1c(C(=O)OCc2ccccc2)cnc2ccc(Cl)cc12 [Derivative 52, [N'-(3-Benzyloxycarbonyl-6-chloro-4-quinolyl)-N'-methylamino]-N,N-dipropylacetamide] | 727 nM | ED50 (pentetrazole seizures): 31 mg/kg
36 | CCCN(CCC)C(=O)CNc1c(C(=O)OCC)cnc2ccc(SC)cc12 [Derivative 20, 2-(3-Ethoxycarbonyl-6-methylthio-4-quinolyl)amino-N,N-dipropylacetamide] | 40 nM | 
37 | CCOC(=O)c1cnc2ccc(Cl)cc2c1NCC(=O)N(CC)CC [1 maleate] |  | ED50 (Confidence interval) (pentetrazole seizures; oral, 30 min): 27 (18-36) mg/kg
38 | CCCN(CCC)C(=O)CNc1c(C(=O)OCC)cnc2ccc([N+](=O)[O-])cc12 [Derivative 18, 2-(3-Ethoxycarbonyl-6-nitro-4-quinolyl)amino-N,N-dipropylacetamide] | 26 nM | 
39 | CCCN(CCC)C(=O)CNc1c(C(=O)OCC)cnc2ccc(OCC)cc12 [Derivative 16, 2-(3-Ethoxycarbonyl-6-ethoxy-4-quinolyl)amino-N,N-dipropylacetamide] | 38 nM | 

— patent US4788188A, “Quinolylglycinamide derivatives, the process for preparation thereof and their therapeutic application as psychotropic drugs” (Sanofi (S.A.), priority 1985, dated 1988)
